Source: paper PMC9851200, “Multiparameter phenotypic screening for endogenous TFEB and TFE3 translocation identifies novel chemical series modulating lysosome function” (Autophagy, 2022)

How the values were obtained:
Assay type in all cases: binding
[1] = target: kinases (KINOMEscan panel) (Homo sapiens, UniProt P10721, D816V); details: kinase KIT(D816V); NEW KINOMEscan
[2] = target: T1, kinases (KINOMEscan panel) (Homo sapiens, UniProt Q08881); details: kinase ITK; NEW KINOMEscan
T1 sequence (Q08881 1-620): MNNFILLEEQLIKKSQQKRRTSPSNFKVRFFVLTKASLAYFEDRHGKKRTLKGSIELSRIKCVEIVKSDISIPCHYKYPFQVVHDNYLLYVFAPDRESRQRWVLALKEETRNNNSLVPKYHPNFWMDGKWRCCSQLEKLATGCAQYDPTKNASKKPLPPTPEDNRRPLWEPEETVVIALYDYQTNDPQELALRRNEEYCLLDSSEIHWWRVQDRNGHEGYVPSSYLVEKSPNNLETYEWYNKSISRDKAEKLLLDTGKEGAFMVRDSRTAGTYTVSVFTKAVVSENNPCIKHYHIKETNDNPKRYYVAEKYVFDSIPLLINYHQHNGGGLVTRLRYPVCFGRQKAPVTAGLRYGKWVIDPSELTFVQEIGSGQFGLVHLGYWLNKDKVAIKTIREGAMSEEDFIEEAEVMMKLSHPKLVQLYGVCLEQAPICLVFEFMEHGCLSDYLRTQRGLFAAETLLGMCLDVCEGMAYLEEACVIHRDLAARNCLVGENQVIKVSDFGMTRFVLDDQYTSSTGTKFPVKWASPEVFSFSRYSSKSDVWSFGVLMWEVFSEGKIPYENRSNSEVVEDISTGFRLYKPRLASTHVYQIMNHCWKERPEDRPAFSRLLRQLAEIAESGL

[3] = target: T2, kinases (KINOMEscan panel) (Homo sapiens, UniProt P35626); details: GRK3; NEW KINOMEscan
T2 sequence (P35626 1-688): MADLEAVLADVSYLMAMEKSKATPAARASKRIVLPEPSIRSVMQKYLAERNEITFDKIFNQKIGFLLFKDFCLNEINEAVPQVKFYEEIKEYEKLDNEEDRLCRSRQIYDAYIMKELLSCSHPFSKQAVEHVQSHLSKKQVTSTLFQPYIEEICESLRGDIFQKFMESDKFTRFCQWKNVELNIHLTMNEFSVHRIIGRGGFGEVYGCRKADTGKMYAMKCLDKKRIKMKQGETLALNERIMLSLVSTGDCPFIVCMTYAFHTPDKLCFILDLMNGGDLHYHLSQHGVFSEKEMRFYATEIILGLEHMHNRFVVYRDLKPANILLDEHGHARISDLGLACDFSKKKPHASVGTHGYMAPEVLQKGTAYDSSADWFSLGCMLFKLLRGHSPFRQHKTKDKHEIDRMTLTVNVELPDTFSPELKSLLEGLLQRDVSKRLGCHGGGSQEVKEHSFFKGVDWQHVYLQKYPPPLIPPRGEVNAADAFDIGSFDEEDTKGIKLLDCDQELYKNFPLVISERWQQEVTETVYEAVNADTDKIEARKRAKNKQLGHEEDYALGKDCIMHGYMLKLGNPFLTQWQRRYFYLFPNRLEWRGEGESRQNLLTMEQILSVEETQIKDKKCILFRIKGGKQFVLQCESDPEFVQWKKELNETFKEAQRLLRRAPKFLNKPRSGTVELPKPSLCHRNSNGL

[4] = target: kinases (KINOMEscan panel) (Homo sapiens, UniProt P31749); details: kinase AKT1; NEW KINOMEscan
Chain of kinases (KINOMEscan panel) (Homo sapiens, UniProt P31749) (P31749 whole entry): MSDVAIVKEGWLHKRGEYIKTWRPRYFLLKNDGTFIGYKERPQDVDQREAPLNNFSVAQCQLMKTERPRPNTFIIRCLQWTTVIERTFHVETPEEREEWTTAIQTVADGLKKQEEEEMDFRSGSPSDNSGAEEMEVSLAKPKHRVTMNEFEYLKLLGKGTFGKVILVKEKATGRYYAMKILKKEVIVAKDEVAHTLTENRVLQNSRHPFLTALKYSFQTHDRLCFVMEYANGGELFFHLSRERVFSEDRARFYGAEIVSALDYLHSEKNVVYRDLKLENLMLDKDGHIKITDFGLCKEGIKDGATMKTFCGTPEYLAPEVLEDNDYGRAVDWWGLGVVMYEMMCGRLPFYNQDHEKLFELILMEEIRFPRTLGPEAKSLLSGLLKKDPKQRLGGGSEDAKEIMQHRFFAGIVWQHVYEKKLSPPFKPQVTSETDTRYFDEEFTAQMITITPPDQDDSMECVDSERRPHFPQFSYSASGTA

[5] = target: kinases (KINOMEscan panel) (Plasmodium falciparum, UniProt P61075); details: PFPK5(P.falciparum); NEW KINOMEscan
Chain of kinases (KINOMEscan panel) (Plasmodium falciparum, UniProt P61075) (P61075 whole entry): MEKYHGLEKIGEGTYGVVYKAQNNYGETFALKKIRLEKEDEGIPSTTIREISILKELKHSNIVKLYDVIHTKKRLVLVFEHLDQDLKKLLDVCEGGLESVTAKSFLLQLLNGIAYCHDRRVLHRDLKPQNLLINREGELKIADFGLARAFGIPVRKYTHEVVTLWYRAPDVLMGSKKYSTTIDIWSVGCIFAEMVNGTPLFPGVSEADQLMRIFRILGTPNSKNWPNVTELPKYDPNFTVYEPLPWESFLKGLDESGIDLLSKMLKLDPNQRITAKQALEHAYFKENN

[6] = target: kinases (KINOMEscan panel) (Homo sapiens, UniProt P10721); details: NEW KINOMEscan
Chain of kinases (KINOMEscan panel) (Homo sapiens, UniProt P10721) (P10721 26-976): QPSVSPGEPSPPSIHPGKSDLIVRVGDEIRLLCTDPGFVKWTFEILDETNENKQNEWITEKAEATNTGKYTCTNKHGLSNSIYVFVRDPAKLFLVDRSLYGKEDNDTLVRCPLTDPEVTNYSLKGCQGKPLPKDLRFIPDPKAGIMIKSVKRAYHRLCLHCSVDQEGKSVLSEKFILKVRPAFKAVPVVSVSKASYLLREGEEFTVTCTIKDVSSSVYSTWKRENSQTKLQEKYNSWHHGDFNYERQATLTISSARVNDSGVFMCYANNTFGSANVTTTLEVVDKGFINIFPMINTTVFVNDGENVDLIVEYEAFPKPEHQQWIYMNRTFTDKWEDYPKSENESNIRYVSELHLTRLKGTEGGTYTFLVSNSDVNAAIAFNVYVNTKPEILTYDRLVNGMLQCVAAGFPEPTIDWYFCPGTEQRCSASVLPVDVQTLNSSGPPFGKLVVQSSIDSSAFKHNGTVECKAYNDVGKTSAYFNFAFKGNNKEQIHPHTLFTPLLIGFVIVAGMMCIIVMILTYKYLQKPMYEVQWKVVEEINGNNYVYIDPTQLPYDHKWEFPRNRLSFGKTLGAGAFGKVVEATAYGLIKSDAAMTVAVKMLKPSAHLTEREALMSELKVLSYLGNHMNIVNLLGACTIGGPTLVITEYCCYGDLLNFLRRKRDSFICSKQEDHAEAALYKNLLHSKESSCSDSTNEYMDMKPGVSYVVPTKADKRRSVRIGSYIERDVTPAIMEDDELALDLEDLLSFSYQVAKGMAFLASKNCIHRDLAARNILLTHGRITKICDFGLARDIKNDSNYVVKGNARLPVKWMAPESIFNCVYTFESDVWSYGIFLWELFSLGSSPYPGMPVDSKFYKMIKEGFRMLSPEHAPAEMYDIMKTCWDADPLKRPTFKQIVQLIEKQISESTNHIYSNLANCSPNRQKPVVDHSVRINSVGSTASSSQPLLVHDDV

[7] = target: T3, kinases (KINOMEscan panel) (Homo sapiens, UniProt P51817); details: kinase PRKX; NEW KINOMEscan
T3 sequence (P51817 1-358): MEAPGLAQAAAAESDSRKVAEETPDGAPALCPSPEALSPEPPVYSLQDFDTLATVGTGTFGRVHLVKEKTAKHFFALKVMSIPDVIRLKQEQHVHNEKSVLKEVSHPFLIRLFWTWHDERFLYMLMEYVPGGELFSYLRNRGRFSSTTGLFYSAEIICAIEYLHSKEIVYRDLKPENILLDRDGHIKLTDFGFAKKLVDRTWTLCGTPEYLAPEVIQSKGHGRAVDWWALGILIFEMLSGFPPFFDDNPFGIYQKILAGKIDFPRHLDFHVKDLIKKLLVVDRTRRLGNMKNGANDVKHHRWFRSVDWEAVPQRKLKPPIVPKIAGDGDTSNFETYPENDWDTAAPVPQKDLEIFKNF

[8] = target: T4, kinases (KINOMEscan panel) (Homo sapiens, UniProt Q13976); details: kinase PRKG1; NEW KINOMEscan
T4 sequence (Q13976 1-671): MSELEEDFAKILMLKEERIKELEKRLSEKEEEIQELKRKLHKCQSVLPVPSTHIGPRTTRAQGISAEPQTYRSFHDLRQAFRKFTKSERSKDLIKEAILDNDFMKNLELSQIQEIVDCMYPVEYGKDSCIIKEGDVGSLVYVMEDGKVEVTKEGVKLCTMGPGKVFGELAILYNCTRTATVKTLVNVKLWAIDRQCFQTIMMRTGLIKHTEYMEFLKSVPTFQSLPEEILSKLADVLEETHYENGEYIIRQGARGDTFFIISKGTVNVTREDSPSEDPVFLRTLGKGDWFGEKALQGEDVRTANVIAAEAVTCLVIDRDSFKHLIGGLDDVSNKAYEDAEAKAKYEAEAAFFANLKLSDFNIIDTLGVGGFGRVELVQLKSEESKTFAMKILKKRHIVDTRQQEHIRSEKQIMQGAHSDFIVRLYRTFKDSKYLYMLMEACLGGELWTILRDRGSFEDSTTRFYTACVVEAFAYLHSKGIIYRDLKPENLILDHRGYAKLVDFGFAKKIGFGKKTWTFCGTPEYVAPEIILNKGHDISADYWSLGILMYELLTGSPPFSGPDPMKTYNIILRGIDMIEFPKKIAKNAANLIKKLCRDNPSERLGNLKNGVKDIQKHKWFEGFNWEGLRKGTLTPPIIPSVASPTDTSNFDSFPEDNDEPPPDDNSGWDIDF

[9] = target: kinases (KINOMEscan panel) (Homo sapiens, UniProt P22607); details: FGFR3; NEW KINOMEscan
Chain of kinases (KINOMEscan panel) (Homo sapiens, UniProt P22607) (P22607 23-806): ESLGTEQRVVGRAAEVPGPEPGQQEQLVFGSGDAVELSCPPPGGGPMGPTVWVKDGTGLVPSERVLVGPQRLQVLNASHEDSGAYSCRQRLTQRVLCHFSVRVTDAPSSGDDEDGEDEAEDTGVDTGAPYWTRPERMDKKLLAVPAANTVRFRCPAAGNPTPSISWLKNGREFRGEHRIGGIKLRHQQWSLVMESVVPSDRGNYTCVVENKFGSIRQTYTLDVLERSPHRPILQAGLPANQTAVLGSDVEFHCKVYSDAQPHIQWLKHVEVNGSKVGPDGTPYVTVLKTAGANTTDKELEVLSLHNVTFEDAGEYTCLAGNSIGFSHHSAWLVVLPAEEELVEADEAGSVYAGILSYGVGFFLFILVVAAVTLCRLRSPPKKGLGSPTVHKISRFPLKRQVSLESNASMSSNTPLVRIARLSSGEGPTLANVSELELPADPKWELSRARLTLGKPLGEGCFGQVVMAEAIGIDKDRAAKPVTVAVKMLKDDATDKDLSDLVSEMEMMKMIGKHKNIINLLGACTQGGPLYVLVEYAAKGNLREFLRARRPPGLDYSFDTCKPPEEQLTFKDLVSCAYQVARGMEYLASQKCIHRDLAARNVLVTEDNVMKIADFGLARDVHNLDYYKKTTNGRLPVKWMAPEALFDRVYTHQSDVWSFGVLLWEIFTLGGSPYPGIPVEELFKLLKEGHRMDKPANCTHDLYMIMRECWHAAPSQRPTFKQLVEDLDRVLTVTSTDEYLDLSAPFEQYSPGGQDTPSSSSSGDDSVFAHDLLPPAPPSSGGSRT

[10] = target: kinases (KINOMEscan panel) (Homo sapiens, UniProt P07333); details: NEW KINOMEscan
Chain of kinases (KINOMEscan panel) (Homo sapiens, UniProt P07333) (P07333 20-972): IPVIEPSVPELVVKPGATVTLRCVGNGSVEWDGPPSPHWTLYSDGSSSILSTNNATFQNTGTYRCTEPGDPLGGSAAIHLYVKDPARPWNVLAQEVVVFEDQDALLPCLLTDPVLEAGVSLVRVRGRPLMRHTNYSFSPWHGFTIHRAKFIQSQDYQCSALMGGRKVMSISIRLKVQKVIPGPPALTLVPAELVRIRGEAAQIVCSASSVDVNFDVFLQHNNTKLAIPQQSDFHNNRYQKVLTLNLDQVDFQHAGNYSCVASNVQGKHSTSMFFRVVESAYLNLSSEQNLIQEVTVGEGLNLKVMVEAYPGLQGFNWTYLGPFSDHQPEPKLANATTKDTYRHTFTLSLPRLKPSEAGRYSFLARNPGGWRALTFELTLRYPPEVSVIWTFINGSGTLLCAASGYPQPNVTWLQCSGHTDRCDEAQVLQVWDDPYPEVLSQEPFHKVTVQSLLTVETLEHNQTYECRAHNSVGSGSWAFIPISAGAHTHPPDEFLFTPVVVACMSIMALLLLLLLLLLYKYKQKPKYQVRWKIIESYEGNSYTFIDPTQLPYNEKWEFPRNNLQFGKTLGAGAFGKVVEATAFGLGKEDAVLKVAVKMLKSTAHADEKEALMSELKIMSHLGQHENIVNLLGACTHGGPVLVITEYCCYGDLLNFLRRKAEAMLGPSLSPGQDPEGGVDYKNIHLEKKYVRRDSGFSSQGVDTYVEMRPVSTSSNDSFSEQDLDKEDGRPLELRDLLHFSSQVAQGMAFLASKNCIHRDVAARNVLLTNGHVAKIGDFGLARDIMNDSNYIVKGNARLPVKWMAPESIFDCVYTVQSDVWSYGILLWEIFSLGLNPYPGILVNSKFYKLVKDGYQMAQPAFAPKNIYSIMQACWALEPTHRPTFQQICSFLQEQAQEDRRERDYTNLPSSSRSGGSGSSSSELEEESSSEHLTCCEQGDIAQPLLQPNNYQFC

Chain of kinases (KINOMEscan panel) (Homo sapiens, UniProt P10721, D816V) (P10721 26-976 D816V): as the sequence (P10721 26-976) above, with D791V counted along it

## Cc1cccc(-c2nc(Nc3ccc4nn(C)cc4c3)c3ccccc3n2)n1 [NK167]
[1]
  KINOMEscan KIT(D816V): 0
[2]
  KINOMEscan ITK: 0
[3]
  KINOMEscan GRK3: 0
[4]
  KINOMEscan AKT1: 10
[5]
  KINOMEscan PFPK5(P.falciparum): 0
[6]
  KINOMEscan KIT-autoinhibited: 1
  KINOMEscan KIT: 8
[7]
  KINOMEscan PRKX: 0
[8]
  KINOMEscan PRKG1: 0
[9]
  KINOMEscan FGFR3: 0
[10]
  KINOMEscan CSF1R: 16
  KINOMEscan CSF1R-autoinhibited: 0

## Cc1cccc(-c2nc(N(C)c3ccc4ncsc4c3)c3ccccc3n2)n1 [NK-161]
[1]
  KINOMEscan KIT(D816V): 7
[2]
  KINOMEscan ITK: 14
[3]
  KINOMEscan GRK3: 25
[4]
  KINOMEscan AKT1: 17
[5]
  KINOMEscan PFPK5(P.falciparum): 0
[6]
  KINOMEscan KIT-autoinhibited: 0
  KINOMEscan KIT: 5
[7]
  KINOMEscan PRKX: 7
[8]
  KINOMEscan PRKG1: 10
[9]
  KINOMEscan FGFR3: 1
[10]
  KINOMEscan CSF1R: 18
  KINOMEscan CSF1R-autoinhibited: 26
